Measured values as given in ChEMBL document CHEMBL5614438, “CETZOLE Analogs as Potent Ferroptosis Inducers and Their Target Identification Using Covalent/Affinity Probes” (J Med Chem, 2024).
Calls of active or inactive are those of the source. The rule behind the calls is not given here.

Experiments:
[1] = tested on: U2OS; assay: Cytotoxicity against human U2OS cells assessed as reduction in cell viability incubated for 3 days by methylene blue staining based spectrophotometric analysis; format: functional; conditions: 72 h, time 3 day
[2] = tested on: MDA-MB-231; assay: Cytotoxicity against human MDA-MB-231 cells assessed as reduction in cell viability incubated for 3 days by methylene blue staining based spectrophotometric analysis; format: functional; conditions: MDA-MB-231, 72 h, time 3 day
[3] = tested on: NCI-H522; assay: Cytotoxicity against human NCI-H522 cells overexpressing GFP-tagged RV assessed as reduction in cell viability incubated for 3 days by methylene blue staining based spectrophotometric analysis; format: functional; conditions: NCI-H522, 72 h, time 3 day
[4] = tested on: NCI-H522; assay: Cytotoxicity against human NCI-H522 cells assessed as reduction in cell viability incubated for 3 days by methylene blue staining based spectrophotometric analysis; format: functional; conditions: NCI-H522, 72 h, time 3 day
[5] = tested on: NCI-H522; assay: Cytotoxicity against human NCI-H522 cells overexpressing GFP-tagged SLC7A11 assessed as reduction in cell viability incubated for 3 days by methylene blue staining based spectrophotometric analysis; format: functional; conditions: NCI-H522, 72 h, time 3 day
[6] = tested on: HT-1080; assay: Cytotoxicity against human HT-1080 cells assessed as reduction in cell viability incubated for 3 days by methylene blue staining based spectrophotometric analysis; format: functional; conditions: HT-1080, 72 h, time 3 day
[7] = tested on: NCI-H522; assay: Induction of ferroptosis in human NCI-H522 cells assessed as reduction in cell viability at 3.3 uM incubated for 3 days in presence of liproxstatin-1 by methylene blue staining based spectrophotometric analysis; format: functional; conditions: time 3.0 day
[8] = tested on: MEF; assay: Cytotoxicity against mouse MEF cells assessed as reduction in cell viability at 1 uM incubated for 3 days by methylene blue staining based spectrophotometric analysis; format: toxicity; conditions: 72 h, time 3 day
[9] = tested on: NCI-H522; assay: Induction of cell death in human NCI-H522 cells at 10 uM incubated for 3 to 4 hrs by live cell imaging analysis relative to control; format: functional; conditions: time 3-4 hrs
[10] = tested on: NCI-H522; assay: Cytotoxicity against human NCI-H522 cells assessed as reduction in cell viability at 1 uM incubated for 3 days by methylene blue staining based spectrophotometric analysis; format: functional; conditions: time 3.0 day
[11] = tested on: MEF; assay: Cytotoxicity against mouse MEF cells assessed as reduction in cell viability incubated for 3 days by methylene blue staining based spectrophotometric analysis; format: toxicity; conditions: 72 h, time 3 day
[12] = tested on: WI-38; assay: Cytotoxicity against human WI-38 cells assessed as reduction in cell viability at 1 uM incubated for 3 days by methylene blue staining based spectrophotometric analysis; format: toxicity; conditions: wi-38, 72 h, time 3 day
[13] = tested on: WI-38; assay: Cytotoxicity against human WI-38 cells assessed as reduction in cell viability incubated for 3 days by methylene blue staining based spectrophotometric analysis; format: toxicity; conditions: wi-38, 72 h, time 3 day
[14] = tested on: HT-1080; assay: Cytotoxicity against human HT-1080 cells assessed as reduction in cell viability at 1 uM incubated for 3 days by methylene blue staining based spectrophotometric analysis; format: functional; conditions: time 3.0 day
[15] = tested on: NCI-H522; assay: Induction of ferroptosis in human NCI-H522 cells assessed as reduction in cell viability at 13.68 uM incubated for 3 days in presence of liproxstatin-1 by methylene blue staining based spectrophotometric analysis; format: functional; conditions: time 3.0 day
[16] = tested on: NCI-H522; assay: Induction of ferroptosis in human NCI-H522 cells assessed as cell death at 0.38 uM incubated for 3 days by methylene blue staining based spectrophotometric analysis relative to control; format: functional; conditions: time 3 day
[17] = tested on: NCI-H522; assay: Induction of ferroptosis in human NCI-H522 cells assessed as increase in intracellular lipid peroxidation accumulation at 0.36 uM incubated for 6 hrs by C11 BODIPY 581/591 staining based flow cytometry; format: functional, cell-based
[18] = target: Glucose-6-phosphate 1-dehydrogenase (Homo sapiens) (UniProt P11413); assay: Inhibition of G6PD in human HCT-116 cells using G6P as substrate at 100 uM incubated for 20 mins followed by G6P and […]; format: cell-based
Sequence of Glucose-6-phosphate 1-dehydrogenase (Homo sapiens) (P11413 whole entry): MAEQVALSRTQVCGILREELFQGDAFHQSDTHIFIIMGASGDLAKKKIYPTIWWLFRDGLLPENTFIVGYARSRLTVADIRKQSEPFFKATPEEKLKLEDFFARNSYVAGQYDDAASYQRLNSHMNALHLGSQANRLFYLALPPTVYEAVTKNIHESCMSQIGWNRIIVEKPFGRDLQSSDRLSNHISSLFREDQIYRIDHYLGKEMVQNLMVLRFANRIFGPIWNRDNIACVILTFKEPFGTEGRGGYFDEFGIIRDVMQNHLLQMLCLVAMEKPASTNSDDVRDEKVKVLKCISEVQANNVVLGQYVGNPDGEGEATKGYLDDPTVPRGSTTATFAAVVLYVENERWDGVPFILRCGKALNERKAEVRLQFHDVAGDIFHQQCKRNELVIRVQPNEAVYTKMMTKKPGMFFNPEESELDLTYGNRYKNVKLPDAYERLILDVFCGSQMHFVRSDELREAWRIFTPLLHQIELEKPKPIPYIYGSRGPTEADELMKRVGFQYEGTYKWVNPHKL

[19] = target: Phospholipid hydroperoxide glutathione peroxidase GPX4 (Homo sapiens) (UniProt P36969); assay: Inhibition of recombinant GPX4 (unknown origin) at 100 uM incubated for 60 mins followed by NADPH addition
Sequence of Phospholipid hydroperoxide glutathione peroxidase GPX4 (Homo sapiens) (P36969 whole entry): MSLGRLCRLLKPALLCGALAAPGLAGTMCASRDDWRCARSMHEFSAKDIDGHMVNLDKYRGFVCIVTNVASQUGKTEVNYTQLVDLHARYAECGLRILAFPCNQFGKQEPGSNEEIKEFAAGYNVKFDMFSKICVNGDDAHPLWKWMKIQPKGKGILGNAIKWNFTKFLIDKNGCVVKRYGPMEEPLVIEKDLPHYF

[20] = target: Glucose-6-phosphate 1-dehydrogenase (Homo sapiens) (UniProt P11413); assay: Inhibition of G6PD in human HCT-116 cells using G6P as substrate assessed as reduction in enzyme activity by measuring absorbance at 100 uM incubated for 20 mins followed by G6P and […]; format: cell-based
[21] = target: T1, Peroxiredoxin-4 (Homo sapiens) (UniProt Q13162); assay: Inhibition of PRDX4 (unknown origin)
T1 sequence (whole entry): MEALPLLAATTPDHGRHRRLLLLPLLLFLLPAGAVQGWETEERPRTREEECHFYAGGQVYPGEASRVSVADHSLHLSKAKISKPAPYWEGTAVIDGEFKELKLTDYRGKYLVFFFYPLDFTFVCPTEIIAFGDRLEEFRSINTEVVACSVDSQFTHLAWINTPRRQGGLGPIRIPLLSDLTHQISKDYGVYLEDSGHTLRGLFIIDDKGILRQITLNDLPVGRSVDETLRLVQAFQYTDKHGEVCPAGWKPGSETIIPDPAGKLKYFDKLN

[22] = tested on: NCI-H522; assay: Induction of ferroptosis in human NCI-H522 cells assessed as increase in intracellular lipid peroxidation accumulation at 0.39 uM incubated for 6 hrs by C11 BODIPY 581/591 staining based flow cytometry; format: functional, cell-based
[23] = tested on: NCI-H522; assay: Induction of ferroptosis in human NCI-H522 cells assessed as cell death at 0.39 uM incubated for 3 days by methylene blue staining based spectrophotometric analysis relative to control; format: functional; conditions: time 3 day
[24] = tested on: NCI-H522; assay: Induction of cell death in human NCI-H522 cells at 10 uM incubated for 4 to 5 hrs by live cell imaging analysis relative to control; format: functional; conditions: time 4-5 hrs
[25] = tested on: NCI-H522; assay: Induction of cell death in human NCI-H522 cells at 10 uM incubated for 4 to 5 hrs by live cell imaging analysis; format: functional, cell-based; conditions: time 4-5 hrs
[26] = tested on: NCI-H522; assay: Induction of ferroptosis in human NCI-H522 cells assessed as reduction in cell viability at 7.68 uM incubated for 3 days in presence of liproxstatin-1 by methylene blue staining based spectrophotometric analysis; format: functional; conditions: time 3.0 day
[27] = tested on: NCI-H522; assay: Induction of ferroptosis in human NCI-H522 cells assessed as increase in intracellular lipid peroxidation accumulation at 7.68 uM incubated for 6 hrs by C11 BODIPY 581/591 staining based flow cytometry; format: functional, cell-based
[28] = target: Glucose-6-phosphate 1-dehydrogenase (Homo sapiens) (UniProt P11413); assay: Inhibition of G6PD in human HCT-116 cells using G6P as substrate at 25 uM incubated for 20 mins followed by G6P and […]; format: cell-based
[29] = tested on: NCI-H522; assay: Induction of ferroptosis in human NCI-H522 cells assessed as increase in intracellular lipid peroxidation accumulation at 4.08 uM incubated for 6 hrs by C11 BODIPY 581/591 staining based flow cytometry; format: functional, cell-based
[30] = tested on: NCI-H522; assay: Induction of ferroptosis in human NCI-H522 cells assessed as cell viability incubated for 3 days in presence of liproxstatin-1 by methylene blue staining based spectrophotometric analysis relative to control; format: functional; conditions: time 3 day

| SMILES | CC50 [1] | CC50 [2] | CC50 [3] | CC50 [4] | CC50 [5] | CC50 [6] | further results |
| --- | --- | --- | --- | --- | --- | --- | --- |
| C#Cc1nc(C2=C(C)C(OC(=O)C(c3ccccc3)c3ccccc3)/C(=N\OC(=O)C(c3ccccc3)c3ccccc3)C2)cs1 (stereo not drawn) | 9.1 µM | 14.9 µM | 5.02 µM | 3.5 µM | 9.34 µM | 1.85 µM | – |
| C#Cc1nc(C2=C(C)C(=O)/C(=N/O)C2)cs1 | > 20 µM | 8.05 µM | > 20 µM | > 20 µM | > 20 µM | 5.29 µM | – |
| C#Cc1nc(C2=C(C)C(OC(=O)c3ccccc3)/C(=N\OC(=O)c3ccccc3)C2)cs1 (stereo not drawn) | 0.22 µM | 0.54 µM | 0.58 µM | 0.55 µM | 0.84 µM | 0.08 µM | – |
| COC(=O)c1ccc([C@H]2c3[nH]c4ccccc4c3C[C@H](C(=O)OC)N2C(=O)CCl)cc1 | 2.46 µM | 0.22 µM | 0.31 µM | 1.1 µM | 2.84 µM | 0.14 µM | Activity [7]: inactive; Activity [8]: Toxic; Activity [9]: 50%; Activity [10]: Active; CC50 [11]: 0.04 µM; Activity [12]: Toxic; CC50 [13]: 0.05 µM; Activity [14]: Active |
| CC1=C(c2csc(Br)n2)CCC1O (stereo not drawn) | – | > 20 µM | – | > 20 µM | – | > 20 µM | – |
| CC1=C(c2csc(Br)n2)C/C(=N\OCC(=O)Nc2ccc3oc(=O)c(C)cc3c2)C1=O | – | > 20 µM | – | > 20 µM | – | > 20 µM | – |
| C#Cc1nc(C2=C(C)C(NC(=O)c3cc4ccc(N(CC)CC)cc4oc3=O)CC2)cs1 (stereo not drawn) | – | 1.2 µM | – | 4.56 µM | – | 4.58 µM | Activity [15]: inactive |
| C#Cc1nc(C2=C(C)C(=O)NCC2)cs1 | 7.81 µM | 9.32 µM | 10.9 µM | 5.4 µM | 20.2 µM | 4.89 µM | – |
| C#Cc1nc(C2=C(C)C(OC(=O)CCCCCCC)/C(=N/OC(=O)CCCCCCC)C2)cs1 (stereo not drawn) | > 20 µM | 19.1 µM | > 20 µM | > 20 µM | > 20 µM | > 20 µM | – |
| C#Cc1nc(C2=C(C)C(OC(=O)CC)/C(=N/OC(=O)CC)C2)cs1 (stereo not drawn) | 13.4 µM | 0.18 µM | 0.59 µM | 0.12 µM | 2.06 µM | 0.15 µM | Activity [8]: Toxic; Activity [16]: ~60%; Activity [17]: Active; inhibition [18]: Active; Activity [10]: Active; inhibition [19]: Active; Activity [20]: 0.13; Activity [12]: Toxic; inhibition [21]: inactive; Activity [14]: Active |
| C#CCCC(=O)Nc1ccc(C(=O)c2ccc(NC(=O)CO/N=C3\CC(c4csc(Br)n4)=C(C)C3O)cc2)cc1 (stereo not drawn) | – | > 20 µM | – | > 20 µM | – | > 20 µM | – |
| C#CCO/N=C1\CC(c2csc(Br)n2)=C(C)C1O (stereo not drawn) | – | > 20 µM | – | > 20 µM | – | > 20 µM | – |
| C#Cc1nc(C2=C(C)C(OC(=O)CCC)/C(=N/OC(=O)CCC)C2)cs1 (stereo not drawn) | 5.85 µM | 0.83 µM | 0.28 µM | 0.13 µM | 1.93 µM | 0.19 µM | Activity [22]: Active; Activity [8]: Toxic; Activity [10]: Active; Activity [23]: ~60%; Activity [12]: Toxic; Activity [14]: Active |
| CCN(CC)c1ccc2cc(C(=O)NC3CCC(c4csc(Br)n4)=C3C)c(=O)oc2c1 (stereo not drawn) | – | > 20 µM | – | > 20 µM | – | > 20 µM | – |
| C#Cc1nc(C2=C(C)C(=O)/C(=N/OCC(=O)Nc3ccc4oc(=O)c(C)cc4c3)C2)cs1 | – | > 20 µM | – | > 20 µM | – | > 20 µM | – |
| C#Cc1nc(C2=C(C)C(O)CC2)cs1 (racemic) | 14.9 µM | 6.28 µM | – | – | 10.3 µM | 3.07 µM | Activity [24]: 50%; Activity [8]: Non-Toxic; inhibition [18]: Active; Activity [25]: Active; Activity [10]: inactive; Activity [12]: Non-Toxic; Activity [26]: inactive; inhibition [21]: inactive; Activity [27]: Active; Activity [14]: inactive |
| C#Cc1nc(C2=C(C)C(OC(=O)C(C)(C)C)/C(=N\OC(=O)C(C)(C)C)C2)cs1 (stereo not drawn) | 3.39 µM | 0.44 µM | 0.472 µM | 0.411 µM | 0.387 µM | 0.033 µM | – |
| C#Cc1nc(C2=C(C)C(=O)/C(=N/OC(C)=O)C2)cs1 | > 20 µM | 18.5 µM | > 20 µM | 11 µM | > 20 µM | > 20 µM | – |
| C#Cc1nc(C2=C(C)C(O)/C(=N/O)C2)cs1 (stereo not drawn) | > 20 µM | 6.57 µM | 5.55 µM | 4.68 µM | > 20 µM | 5.77 µM | – |
| COc1ccc(N(C(=O)CCl)C(C(=O)NCCc2ccccc2)c2cccs2)cc1Cl (stereo not drawn) | – | – | – | – | – | – | inhibition [28]: Active; inhibition [21]: inactive |
| C#Cc1nc(C2=C(C)C(O)/C(=N\OCc3ccccc3)C2)cs1 (stereo not drawn) | > 20 µM | 13.4 µM | 3.02 µM | 1.18 µM | 2.17 µM | 0.93 µM | – |
| C#Cc1nc(C2=C(C)/C(=N/OCc3ccccc3)CC2)cs1 | 19.3 µM | 4.17 µM | 2.54 µM | 1.36 µM | 2.41 µM | 0.81 µM | Activity [29]: Active; Activity [30]: 85%; Activity [24]: 50%; Activity [8]: Non-Toxic; Activity [25]: Active; Activity [10]: Active; Activity [12]: Non-Toxic; Activity [14]: Active |
